Reference: article PMC12373846, “Hemoglobin as a pseudoperoxidase and drug target for oxidative stress-related diseases” (Signal Transduction and Targeted Therapy, 2025)
Like-named read-outs stand apart in the source and are kept apart here.

How the values were obtained:
[1] = In vivo pharmacokinetics (IV, PO); conditions: male, ICR, mouse, plasma, mice
Procedure: In vivo pharmacokinetic studies of KDS12025 were conducted by Medicilon (Shanghai, China). For both intravenous (IV) and oral (PO) administration, the compound was dissolved in a vehicle consisting of 10% Solutol and 90% distilled water. Male ICR mice (n = 4 per group) were fasted overnight and allowed access to food 4 h post-dosing, with water provided ad libitum. Following administration, blood samples (0.03 mL per time point) were collected via the submandibular vein. Samples were transferred to tubes containing sodium heparin and centrifuged at 6,800 x g for 6 min at 2–8 °C. Plasma was separated, transferred to Eppendorf tubes, and internal standard (IS: 10 ng/mL verapamil) was added. After vortexing for 1 min and centrifugation at 18,000 x g for 7 min, the supernatant was analyzed by liquid chromatography–tandem mass spectrometry (LC-MS/MS; TQ5500 Triple Quad, SCIEX). Pharmacokinetic parameters including area under the curve (AUC0–t and AUC0–∞), elimination half-life (t1/2), maximum plasma concentration (Cmax), and time to reach maximum concentration (Tmax) were calculated using noncompartmental analysis in Phoenix WinNonlin 7.0 (Pharsight, USA), an FDA-certified pharmacokinetic software.

[2] = test system: SOD1^G93A mice; test: Immunohistochemistry of ventral spinal cord, SOD1^G93A mice; assay type: in vivo, mouse; conditions: SOD1+KDS
Procedure: SOD1^G93A mice (B6SJL-Tg(SOD1*G93A)1Gur/J) were purchased from Jackson Laboratory (strain number 002726) and used in the ALS mouse model. The mice were divided into four groups: Control, SOD1, and KDS12025 (1 and 10 mg/kg/day). Starting at 10 weeks of age, KDS12025 was administered via ad libitum drinking water at doses of 1 mg/kg/day and 10 mg/kg/day. The control and SOD1 groups received standard drinking water. Motor function was evaluated weekly via the rotarod performance test, and the ratio of running time was normalized to that of littermate controls to assess motor coordination and endurance over time. Survival of the mice was monitored for up to 24 weeks, and median survival times were calculated for each group.
The mice were deeply anesthetized with 2% isoflurane and positioned on the operating table. […] A series of fluorescence images were obtained with an LSM900 (Zeiss, Germany) confocal microscope or Lattice SIM Elyra 7 (Zeiss, Germany). […] This analysis quantified the intersections of GFAP-labeled processes within each circle, calculating the ramification index and ending radius, enabling the evaluation of astrocytic hypertrophy and morphological changes, as previously described.[78] In the focal GiD mouse model, NeuN-positive CA1 pyramidal neurons were quantified within a 50 × 50 μm^2 region via ImageJ to determine the number of CA1 pyramidal neurons.

CNc1ccc(NCCc2ccccc2OC)cc1.Cl [KDS12025, N^1-(2-methoxyphenethyl)-N^4-methylbenzene-1,4-diamine hydrochloride salt]
bioavailability ([1]; 5 mg/kg IV and 30 mg/kg PO, read-out: F (bioavailability)): 87.4% | AUC ([1]; 5 mg/kg IV, read-out: AUCall, IV): 687 ± 118 ng·h/mL | half-life ([1]; 5 mg/kg IV, read-out: t1/2, IV (converted)): 57.6 ± 5.4 min | AUC ([1]; 30 mg/kg PO, read-out: AUCall, PO): 3600 ± 662 ng·h/mL | Cmax ([1]; cell spans IV and PO heads, probably 30 mg/kg PO): 2310 ± 344 ng/mL | Hbβ in GFAP-positive astrocytes, ventral spinal cord ([2]; Fig. S15b): Control (2194±76.5, n=25), SOD1 (1209±54.8, n=31), SOD1+KDS (2557±108.6, n=37) One-way ANOVA with Tukey's multiple comparisons test, F(2,90) = 65.01, p < 0.001 Control vs. SOD1, p < 0.001; Control vs. SOD1+KDS, p = 0.02; SOD1 vs. SOD1+KDS, p < 0.001 | Hbβ in NeuN-positive neurons, ventral spinal cord ([2]; Fig. S15d): Control (1961±96.1, n=22), SOD1 (1183±89.9, n=19), SOD1+KDS (2326±85.3, n=17) One-way ANOVA with Tukey's multiple comparisons test, F(2,55) = 38.14, p < 0.001 Control vs. SOD1, p < 0.001; Control vs. SOD1+KDS, p = 0.02; SOD1 vs. SOD1+KDS, p < 0.001
